From patent US7517676B2, “Human cyclooxygenase-3 enzyme and uses thereof” (Janssen Pharmaceutica N.V., priority 2003, dated 2009)

Experiments:
[1] = molecular target: T1, dog COX-3 (Canis lupus familiaris, UniProt Q8HZR1); conditions: cited from earlier work
T1 sequence (Q8HZR1 1-633 isoform Q8HZR1-2): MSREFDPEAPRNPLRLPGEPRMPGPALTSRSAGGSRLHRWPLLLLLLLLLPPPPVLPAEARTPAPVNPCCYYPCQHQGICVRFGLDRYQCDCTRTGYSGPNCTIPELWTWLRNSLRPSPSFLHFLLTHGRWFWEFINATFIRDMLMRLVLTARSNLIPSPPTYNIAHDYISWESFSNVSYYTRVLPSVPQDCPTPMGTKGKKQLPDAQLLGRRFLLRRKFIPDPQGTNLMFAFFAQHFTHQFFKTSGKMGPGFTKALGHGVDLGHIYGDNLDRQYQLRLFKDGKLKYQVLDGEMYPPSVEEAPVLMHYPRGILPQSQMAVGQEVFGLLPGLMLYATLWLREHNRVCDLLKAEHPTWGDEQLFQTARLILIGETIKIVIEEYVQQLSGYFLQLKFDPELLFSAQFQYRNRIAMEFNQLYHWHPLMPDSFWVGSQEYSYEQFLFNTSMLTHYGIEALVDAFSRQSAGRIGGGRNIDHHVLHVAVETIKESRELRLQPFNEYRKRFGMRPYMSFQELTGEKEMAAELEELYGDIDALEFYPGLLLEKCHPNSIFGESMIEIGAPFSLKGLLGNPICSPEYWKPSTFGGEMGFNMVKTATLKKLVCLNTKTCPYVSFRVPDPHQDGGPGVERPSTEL

[2] = system: ovarian cancer; conditions: women who reported taking acetaminophen daily; prospective study; cited from earlier work
[3] = molecular target: T2, human COX-3a (Homo sapiens, UniProt P23219); assay: COX activity assay: PGF2α formation from arachidonic acid by microsomes of Sf9 cells expressing hCOX-3a; type: biochemical; conditions: synthesis of PGF2α from arachidonic acid; 20 μg microsomal membrane protein, room temperature, 5 minutes, pH 8.0
T2 construct: the full length human COX-3a cDNA was subcloned into pFastBac; made in house; host or cells: Sf9 insect cells (baculovirus, pFastBac); microsomal fraction
Protocol: Microsomal protein fractions were prepared from Sf9 cells infected with the hCOX-3a recombinant baculovirus. Microsomal membrane protein (20 μg) was incubated with the indicated concentration of arachidonic acid in a volume of 150 μl buffer containing 0.1 M Tris-HCl (pH=8.0), 5 mM EDTA, 2 mM phenol and 1.5 μM […]. After incubating at room temperature for 5 minutes, the reaction was terminated by the addition of 40 μl of 1 N HCl with mixing. Samples were neutralized with 40 μl of 1 N NaOH. The formation of the PGF2α product was determined using a PGF2α immunoassay kit (Assay Designs, Inc.), as directed by the manufacturer.

[4] = substrate concentration of 5 mM

T2 sequence (P23219 1-630 isoform P23219-6): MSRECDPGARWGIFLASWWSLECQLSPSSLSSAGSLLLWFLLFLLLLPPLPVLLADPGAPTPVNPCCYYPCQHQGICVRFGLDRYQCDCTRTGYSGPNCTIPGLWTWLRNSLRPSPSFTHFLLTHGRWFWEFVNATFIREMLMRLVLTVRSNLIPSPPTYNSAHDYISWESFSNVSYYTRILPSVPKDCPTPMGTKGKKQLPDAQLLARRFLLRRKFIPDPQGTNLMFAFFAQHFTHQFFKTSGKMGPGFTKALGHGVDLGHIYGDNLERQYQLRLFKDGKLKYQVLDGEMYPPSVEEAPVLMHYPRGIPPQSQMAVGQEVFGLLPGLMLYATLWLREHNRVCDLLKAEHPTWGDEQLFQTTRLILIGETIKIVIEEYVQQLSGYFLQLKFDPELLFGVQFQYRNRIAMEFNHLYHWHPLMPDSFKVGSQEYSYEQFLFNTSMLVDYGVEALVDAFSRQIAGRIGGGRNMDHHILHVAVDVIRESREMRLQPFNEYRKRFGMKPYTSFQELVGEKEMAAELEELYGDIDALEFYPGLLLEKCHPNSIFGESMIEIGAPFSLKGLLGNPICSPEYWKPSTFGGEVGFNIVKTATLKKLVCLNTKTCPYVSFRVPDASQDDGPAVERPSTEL

## CC(=O)Nc1ccc(O)cc1 [acetaminophen]
[1]
  inhibition of dog COX-3 compared with murine COX-1 and -2: selectively inhibited
[1]; [4]
  selectivity for inhibition of dog COX-3 versus murine COX-1: 2 fold
  selectivity for inhibition of dog COX-3 versus murine COX-2: 100 fold
[2]
  lower death rate from ovarian cancer than women reporting no use: 45%

## Cc1cc(=O)n(-c2ccccc2)n1C [antipyrine]
[1]
  inhibition of dog COX-3 compared with murine COX-1 and -2: selectively inhibited

## CCCCC/C=C\C/C=C\C/C=C\C/C=C\CCCC(=O)O [arachidonic acid]
[3]
  Km: 0.54 µM
  Vmax: 3.07 pmol/mg/min

## Cc1c(N(C)CS(=O)(=O)[O-])c(=O)n(-c2ccccc2)n1C.[Na+] [dipyrone]
[1]
  inhibition of dog COX-3 compared with murine COX-1 and -2: selectively inhibited

## CCOc1ccc(NC(C)=O)cc1 [phenacetin]
[1]
  inhibition of dog COX-3 compared with murine COX-1 and -2: selectively inhibited
